For one experiment, the target named is JH2 domain of human Tyk2 (Homo sapiens (Human), UniProt P29597). The experiment is described as follows: JH2 Biochemical Assay (TR-FRET probe displacement). The format is binding. The note with it: TR-FRET probe displacement, JH2 domain of human Tyk2.
A further experiment addresses Tyk2 (Homo sapiens (Human), UniProt P29597). The experiment is described as follows: pSTAT4 Cell Assay (MSD, NK92 cells). Format: cell-based. The note with it: MSD.

The structures appear in SMILES notation. pIC50: −log10 of the molar value. Structures can show the parent of a compound that is named as a salt.

As a reminder, the pIC50 is the IC50 on a negative log10 scale, so that one unit is a factor of ten. A lower pIC50 goes with a large IC50.

JH2 domain of human Tyk2, sequence (P29597 575-876): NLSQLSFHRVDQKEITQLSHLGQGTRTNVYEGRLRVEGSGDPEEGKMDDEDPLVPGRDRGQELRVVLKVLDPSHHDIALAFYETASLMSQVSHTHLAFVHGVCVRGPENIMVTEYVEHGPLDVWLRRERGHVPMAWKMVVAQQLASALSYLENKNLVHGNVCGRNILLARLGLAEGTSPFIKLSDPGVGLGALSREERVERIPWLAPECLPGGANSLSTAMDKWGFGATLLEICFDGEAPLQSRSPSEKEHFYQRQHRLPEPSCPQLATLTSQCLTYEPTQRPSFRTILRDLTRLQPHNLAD
Tyk2, sequence (P29597 whole entry): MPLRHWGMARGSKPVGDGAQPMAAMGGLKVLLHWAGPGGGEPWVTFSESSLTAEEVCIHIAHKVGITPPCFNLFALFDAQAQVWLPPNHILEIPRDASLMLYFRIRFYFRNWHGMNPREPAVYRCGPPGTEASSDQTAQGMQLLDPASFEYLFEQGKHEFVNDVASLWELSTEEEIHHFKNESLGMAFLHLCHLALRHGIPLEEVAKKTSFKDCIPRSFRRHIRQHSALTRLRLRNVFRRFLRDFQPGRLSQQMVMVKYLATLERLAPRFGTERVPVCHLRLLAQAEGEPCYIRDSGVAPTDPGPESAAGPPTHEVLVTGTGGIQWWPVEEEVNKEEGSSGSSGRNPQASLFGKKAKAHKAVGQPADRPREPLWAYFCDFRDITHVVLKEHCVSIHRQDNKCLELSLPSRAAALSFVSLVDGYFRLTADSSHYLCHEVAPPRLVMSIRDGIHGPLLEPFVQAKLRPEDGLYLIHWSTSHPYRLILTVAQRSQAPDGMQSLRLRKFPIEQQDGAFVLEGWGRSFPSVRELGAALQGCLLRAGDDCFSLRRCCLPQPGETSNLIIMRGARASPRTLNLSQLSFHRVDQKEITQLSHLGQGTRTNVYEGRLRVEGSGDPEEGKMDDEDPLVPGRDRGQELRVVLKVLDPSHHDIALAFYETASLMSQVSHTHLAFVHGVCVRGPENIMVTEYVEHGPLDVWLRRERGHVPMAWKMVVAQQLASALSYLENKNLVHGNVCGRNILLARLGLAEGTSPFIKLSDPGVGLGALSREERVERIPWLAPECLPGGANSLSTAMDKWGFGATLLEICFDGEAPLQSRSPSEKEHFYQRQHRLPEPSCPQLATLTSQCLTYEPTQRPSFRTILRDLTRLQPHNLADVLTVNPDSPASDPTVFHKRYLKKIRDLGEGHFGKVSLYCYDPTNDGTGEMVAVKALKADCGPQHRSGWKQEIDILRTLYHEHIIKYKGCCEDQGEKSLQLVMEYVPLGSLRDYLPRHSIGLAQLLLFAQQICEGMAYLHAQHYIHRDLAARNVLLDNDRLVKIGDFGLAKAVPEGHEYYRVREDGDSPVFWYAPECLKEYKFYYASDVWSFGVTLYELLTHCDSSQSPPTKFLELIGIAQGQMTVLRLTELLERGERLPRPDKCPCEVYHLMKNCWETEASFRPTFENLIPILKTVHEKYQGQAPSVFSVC

As for `COCCn1nccc1-c1cnc(NC(C)=O)cc1Nc1cc(C)nc(C(C)(F)F)n1` [Example 258, N-(4-((2-(1,1-difluoroethyl)-6-methylpyrimidin-4-yl)amino)-5-(1-(2-methoxyethyl)-1H-pyrazol-5-yl)pyridin-2-yl)acetamide], the pIC50 at JH2 domain of human Tyk2 and against Tyk2 was 6.00 to 7.00 throughout.
On to `COCCn1cc(-c2cnc(NC(C)=O)cc2Nc2cc(C)nc(C(C)(F)F)n2)nn1` [Example 259, N-(4-((2-(1,1-difluoroethyl)-6-methylpyrimidin-4-yl)amino)-5-(1-(2-methoxyethyl)-1H-1,2,3-triazol-4-yl)pyridin-2-yl)acetamide], for which the negative logarithm of the IC50 (pIC50) at JH2 domain of human Tyk2 and against Tyk2 was ≥ 8.00 throughout.
In the case of `CCc1cc(Nc2cc(NC(C)=O)ncc2-c2cnn(CCOC)n2)nc(C(C)(F)F)n1` [Example 261, N-(4-((2-(1,1-difluoroethyl)-6-ethylpyrimidin-4-yl)amino)-5-(2-(2-methoxyethyl)-2H-1,2,3-triazol-4-yl)pyridin-2-yl)acetamide], the negative-log IC50 (pIC50) on JH2 domain of human Tyk2 and on Tyk2 was ≥ 8.00 each time.
Turning to `CCc1cc(Nc2cc(NC(C)=O)ncc2-c2cn(CCOC)nn2)nc(C(C)(F)F)n1` [Example 262, N-(4-((2-(1,1-difluoroethyl)-6-ethylpyrimidin-4-yl)amino)-5-(1-(2-methoxyethyl)-1H-1,2,3-triazol-4-yl)pyridin-2-yl)acetamide], the negative-log IC50 (pIC50) at JH2 domain of human Tyk2 and against Tyk2 was ≥ 8.00 each time.
On to `COCCn1cnc(-c2cnc(NC(C)=O)cc2Nc2cc(C)nc(C(C)(F)F)n2)n1` [Example 263, N-(4-((2-(1,1-difluoroethyl)-6-methylpyrimidin-4-yl)amino)-5-(1-(2-methoxyethyl)-1H-1,2,4-triazol-3-yl)pyridin-2-yl)acetamide], for which the negative logarithm of the IC50 (pIC50) on JH2 domain of human Tyk2 is ≥ 8.00; against Tyk2, 6.00 to 7.00.
Taken in the same sequence, the figures for `COC(C)(C)c1cc(-c2cnc(NC(C)=O)cc2Nc2cc(C)nc(C(C)(F)F)n2)ncn1` [Example 264, N-(4-((2-(1,1-difluoroethyl)-6-methylpyrimidin-4-yl)amino)-5-(6-(2-methoxypropan-2-yl)pyrimidin-4-yl)pyridin-2-yl)acetamide] were 6.00 to 7.00 and 6.00 to 7.00.
Taken in the same sequence, the figures for `CC(=O)Nc1cc(Nc2ccnc(C(C)(F)F)n2)c(-c2ccc(COC(F)F)cn2)cn1` [Example 265, N-(4′-((2-(1,1-difluoroethyl)pyrimidin-4-yl)amino)-5-((difluoromethoxy)methyl)-[2,3′-bipyridin]-6′-yl)acetamide] were ≥ 8.00 and ≥ 8.00.
Regarding `CCc1cc(Nc2cc(NC(C)=O)ncc2-c2ccc(OCCOC)nn2)nc(C(C)(F)F)n1` [Example 269, N-(4-((2-(1,1-difluoroethyl)-6-ethylpyrimidin-4-yl)amino)-5-(6-(2-methoxyethoxy)pyridazin-3-yl)pyridin-2-yl)acetamide trifluoroacetate], the negative-log IC50 (pIC50) on JH2 domain of human Tyk2 and at Tyk2 was ≥ 8.00 in each case.
Turning to `CC(=O)Nc1cc(Nc2cc(C)nc(C(C)(F)F)n2)c(-c2csc(N(C)C)n2)cn1` [Example 271, N-(4-((2-(1,1-difluoroethyl)-6-methylpyrimidin-4-yl)amino)-5-(2-(dimethylamino)thiazol-4-yl)pyridin-2-yl)acetamide], the negative-log IC50 (pIC50) on JH2 domain of human Tyk2 and against Tyk2 was ≥ 8.00 each time.
As to `CC(=O)Nc1cc(Nc2cc(C)nc(C(C)(F)F)n2)c(-c2cc(C(C)(C)O)n(C)n2)cn1` [Example 272, N-(4-((2-(1,1-difluoroethyl)-6-methylpyrimidin-4-yl)amino)-5-(5-(2-hydroxypropan-2-yl)-1-methyl-1H-pyrazol-3-yl)pyridin-2-yl)acetamide], the pIC50 at JH2 domain of human Tyk2 and on Tyk2 was ≥ 8.00 each time.
As for `COc1cncc(-c2cnc(NC(C)=O)cc2Nc2ccnc(C(C)(F)F)n2)n1` [Example 273, N-(4-((2-(1,1-difluoroethyl)pyrimidin-4-yl)amino)-5-(6-methoxypyrazin-2-yl)pyridin-2-yl)acetamide], the pIC50 is 7.00 to 8.00 at JH2 domain of human Tyk2 and 6.00 to 7.00 at Tyk2.
Taken in the same sequence, the figures for `COCCNc1cncc(-c2cnc(NC(C)=O)cc2Nc2ccnc(C(C)(F)F)n2)n1` [Example 274, N-(4-((2-(1,1-difluoroethyl)pyrimidin-4-yl)amino)-5-(6-((2-methoxyethyl)amino)pyrazin-2-yl)pyridin-2-yl)acetamide] were ≥ 8.00 and 7.00 to 8.00.
Turning to `COCCN(C)c1cncc(-c2cnc(NC(C)=O)cc2Nc2ccnc(C(C)(F)F)n2)n1` [Example 275, N-(4-((2-(1,1-difluoroethyl)pyrimidin-4-yl)amino)-5-(6-((2-methoxyethyl)(methyl)amino)pyrazin-2-yl)pyridin-2-yl)acetamide], the results for the pIC50 at JH2 domain of human Tyk2 and against Tyk2 were ≥ 8.00 and 6.00 to 7.00, respectively.
In the case of `CC(=O)Nc1cc(Nc2cc(C)nc(C(C)(F)F)n2)c(-n2cc3c(n2)CCN(C)C3)cn1` [Example 277, N-(4-((2-(1,1-difluoroethyl)-6-methylpyrimidin-4-yl)amino)-5-(5-methyl-4,5,6,7-tetrahydro-2H-pyrazolo[4,3-c]pyridin-2-yl)pyridin-2-yl)acetamide], the pIC50 on JH2 domain of human Tyk2 and against Tyk2 was ≥ 8.00 in each case.
As for `CCc1cc(Nc2cc(NC(C)=O)ncc2-c2nc(C)no2)nc(C(C)(F)F)n1` [Example 281, N-(4-((2-(1,1-difluoroethyl)-6-ethylpyrimidin-4-yl)amino)-5-(3-methyl-1,2,4-oxadiazol-5-yl)pyridin-2-yl)acetamide], the pIC50 on JH2 domain of human Tyk2 was ≥ 8.00; at Tyk2, 7.00 to 8.00.
`CC(=O)Nc1cc(Nc2cc(C)nc(C(C)(F)F)n2)c(-c2cc3n(n2)CCNC3)cn1` [Example 282, N-(4-((2-(1,1-difluoroethyl)-6-methylpyrimidin-4-yl)amino)-5-(4,5,6,7-tetrahydropyrazolo[1,5-a]pyrazin-2-yl)pyridin-2-yl)acetamide]: the pIC50 at JH2 domain of human Tyk2 and against Tyk2 was ≥ 8.00 in each case.
Regarding `CCN1CCn2nc(-c3cnc(NC(C)=O)cc3Nc3cc(C)nc(C(C)(F)F)n3)cc2C1` [Example 283, N-(4-((2-(1,1-difluoroethyl)-6-methylpyrimidin-4-yl)amino)-5-(5-ethyl-4,5,6,7-tetrahydropyrazolo[1,5-a]pyrazin-2-yl)pyridin-2-yl)acetamide], the pIC50 at JH2 domain of human Tyk2 and on Tyk2 was ≥ 8.00 in each case.
In the case of `CC(=O)Nc1cc(Nc2cc(C)nc(C(C)(F)F)n2)c(-c2cc(C#N)cnn2)cn1` [Example 286, N-(5-(5-cyanopyridazin-3-yl)-4-((2-(1,1-difluoroethyl)-6-methylpyrimidin-4-yl)amino)pyridin-2-yl)acetamide], the values for the pIC50 on JH2 domain of human Tyk2 and at Tyk2 were ≥ 8.00 and 6.00 to 7.00, respectively.
Taken in the same sequence, the figures for `CC(=O)Nc1cc(Nc2cc(C)nc(C(C)(F)F)n2)c(-c2cc(CN(C)C)n(C)n2)cn1` [Example 287, N-(4-((2-(1,1-difluoroethyl)-6-methylpyrimidin-4-yl)amino)-5-(5-((dimethylamino)methyl)-1-methyl-1H-pyrazol-3-yl)pyridin-2-yl)acetamide] were ≥ 8.00 and ≥ 8.00.
Taken in the same sequence, the figures for `Cc1cc(Nc2cc(NC(N)=O)ncc2-c2ccn(C)n2)nc(C(C)(F)F)n1` [Example 288, 1-(4-((2-(1,1-difluoroethyl)-6-methylpyrimidin-4-yl)amino)-5-(1-methyl-1H-pyrazol-3-yl)pyridin-2-yl)urea] were ≥ 8.00 and ≥ 8.00.
Taken in the same sequence, the figures for `CC(=O)Nc1cc(Nc2cc(C)nc(C(C)(F)F)n2)c(OCCCF)cn1` [Example 295, N-(4-((2-(1,1-difluoroethyl)-6-methylpyrimidin-4-yl)amino)-5-(3-fluoropropoxy)pyridin-2-yl)acetamide] were ≥ 8.00 and 7.00 to 8.00.
As to `COc1cncc(-c2cc(Nc3cc(NC(C)=O)ncc3OC)nc(C(C)(F)F)n2)c1` [Example 296, N-(4-((2-(1,1-difluoroethyl)-6-(5-methoxypyridin-3-yl)pyrimidin-4-yl)amino)-5-methoxypyridin-2-yl)acetamide], the pIC50 was 7.00 to 8.00 on JH2 domain of human Tyk2 and 6.00 to 7.00 at Tyk2.
Taken in the same sequence, the figures for `CCOc1cnc(NC(C)=O)cc1Nc1cc(OC2CC3(COC3)C2)nc(C(C)(F)F)n1` [Example 297, N-(4-((6-((2-oxaspiro[3.3]heptan-6-yl)oxy)-2-(1,1-difluoroethyl)pyrimidin-4-yl)amino)-5-ethoxypyridin-2-yl)acetamide] were ≥ 8.00 and ≥ 8.00.
As for `CO[C@@H](C)COc1cnc(NC(C)=O)cc1Nc1cc(OC2CC2)nc(C(C)(F)F)n1` [Example 299, (S)-N-(4-((6-cyclopropoxy-2-(1,1-difluoroethyl)pyrimidin-4-yl)amino)-5-(2-methoxypropoxy)pyridin-2-yl)acetamide], the negative logarithm of the IC50 (pIC50) on JH2 domain of human Tyk2 and on Tyk2 was ≥ 8.00 in each case.
Take `CC(=O)Nc1cc(Nc2cc(OC3CC3)nc(C(C)(F)F)n2)c(Oc2cnn(C)c2)cn1` [Example 301, N-(4-((6-cyclopropoxy-2-(1,1-difluoroethyl)pyrimidin-4-yl)amino)-5-((1-methyl-1H-pyrazol-4-yl)oxy)pyridin-2-yl)acetamide]: the results for the pIC50 on JH2 domain of human Tyk2 and against Tyk2 were 7.00 to 8.00 and 6.00 to 7.00, respectively.
Regarding `CCOc1cnc(NC(C)=O)cc1Nc1cc(-c2cnn(C(F)F)c2)nc(C(C)(F)F)n1` [Example 303, N-(4-((2-(1,1-difluoroethyl)-6-(1-(difluoromethyl)-1H-pyrazol-4-yl)pyrimidin-4-yl)amino)-5-ethoxypyridin-2-yl)acetamide], the pIC50 was ≥ 8.00 on JH2 domain of human Tyk2 and 7.00 to 8.00 at Tyk2.
As for `CCOc1cnc(NC(C)=O)cc1Nc1cc(-c2cnn(CC(=O)O)c2)nc(C(C)(F)F)n1` [Example 305, 2-(4-(6-((2-acetamido-5-ethoxypyridin-4-yl)amino)-2-(1,1-difluoroethyl)pyrimidin-4-yl)-1H-pyrazol-1-yl)acetic acid], the values for the pIC50 on JH2 domain of human Tyk2 and at Tyk2 were ≥ 8.00 and ≤ 6.00, respectively.
Taken in the same sequence, the figures for `CCOc1cnc(NC(C)=O)cc1Nc1cc(-c2cnn(C(=O)OC(C)(C)C)c2)nc(C(C)(F)F)n1` [Example 307, tert-butyl 4-(6-((2-acetamido-5-ethoxypyridin-4-yl)amino)-2-(1,1-difluoroethyl)pyrimidin-4-yl)-1H-pyrazole-1-carboxylate] were ≥ 8.00 and 7.00 to 8.00.

(Values after patent publication US20260028365A1 (BIOGEN MA INC., priority 2022, published 2026).)
